Legend:
[1] = tested on: guinea pigs; experiment: Acetylcholine chloride/histamine spray-induced asthma, incubation period; format: in vivo, guinea pig; details: for asthma incubation period: 0.2 mM in normal saline sprayed 10 min, challenge after 10 min, recorded as 240 s if no convulsion and fall; for efficacy in asthma model, in words: 0.2 mM spray
Experimental: On the first day, guinea pigs are placed in a 38×38×38 cm (about 55 L) of home-made container with an atomizing nozzle having a diameter of about 3 cm above the side wall. Ultrasonic atomizer (YUWELL, model 402AI) is used to spray normal saline containing acetylcholine chloride (20 g/L) and histamine (1 g/L) for 15 s. The incubation period of asthma of guinea pigs (also is called asthma incubation period, which is the time from the end of the spray to asthma attack, extreme breathing difficulty until convulsion and fall) is recorded after the cessation of spraying. Animals with an incubation period of less than 120 s are qualified sensitive animals.
2. Experimental Processes
On the second day, the qualified animals are selected for experiments, wherein one group (comprising 4 guinea pigs) is used as the control group, one group (comprising 4 guinea pigs) is experimented with positive medicine […] and one group (comprising 10 guinea pigs) is experimented with the drug to be tested. The animals are placed in a container, and sprayed with normal saline, tiotropium bromide and the compound to be tested. Both tiotropium bromide and the compound to be tested are soluble in normal saline at a concentration of 0.2 mM. After spraying for 10 min, the guinea pigs are taken out and put into another container of the same size. After 10 min, normal saline containing acetylcholine chloride (20 g/L) and histamine (1 g/L) is sprayed into the container for 15 s. The incubation periods of asthma of the guinea pigs are observed and recorded. If there is no convulsion and fall after 240 s, the incubation period is recorded as 240 s.

[2] = target: T1, M3 receptor (Homo sapiens, UniProt P20309); experiment: DMR assay, antagonism of acetylcholine in HT-29 cells endogenously expressing the M3 receptor; format: cell-based; details: for IC50: HT-29 cells, DMR, acetylcholine 16 μM, 1 h pretreatment, time point 30 min; for antagonistic activity against the M3 receptor, in words: structure-activity comparison with parent compound
T1 construct: HT-29 cell model endogenously highly expressing the M3 receptor; endogenous in cells; host or cells: HT-29
Experimental: (§1) The present invention relates to the antagonistic activity of the compound against the muscarinic receptor, which is primarily assessed by a cell-level dynamic mass redistribution (DMR) assay method. All tests are carried out on Epic platform, wherein the target model of the muscarinic receptor M1 is the CHO-K1 ceil model stably transfecting the M1 receptor, the target model of M3 is the HT-29 cell model endogenously highly expressing the M3 receptor, and the selected probe molecule is acetylcholine. Tire probe molecule acetylcholine is dissolved in water, while all other compounds are dissolved in DMSO.
The inoculated cell plate is placed in a cell incubator for culture for 20 h until the cell growth and fusion degree reaches about 95%, and the activity assay is carried out. The culture medium is sucked from the cultured cells, the buffer salt specified by the test is added with a volume of 30 μL per orifice and is stabilized for 1 h. After the baseline is stable, a 2-min baseline is established, and different concentrations of compounds to be tested are added to test the cultured cells for 1 h.

[3] = target: T2, M1 receptor (Homo sapiens, UniProt P11229); experiment: DMR assay, antagonism of acetylcholine in CHO-K1 cells stably transfecting the M1 receptor; format: cell-based; details: for IC50: CHO-K1-M1 cells, DMR, acetylcholine 1 μM, 1 h pretreatment, time point 5 min; for antagonistic activity against the M1 receptor, in words: structure-activity comparison with parent compound
T2 construct: expressed in transfected cells; host or cells: CHO-K1
T2 sequence (P11229 1-460): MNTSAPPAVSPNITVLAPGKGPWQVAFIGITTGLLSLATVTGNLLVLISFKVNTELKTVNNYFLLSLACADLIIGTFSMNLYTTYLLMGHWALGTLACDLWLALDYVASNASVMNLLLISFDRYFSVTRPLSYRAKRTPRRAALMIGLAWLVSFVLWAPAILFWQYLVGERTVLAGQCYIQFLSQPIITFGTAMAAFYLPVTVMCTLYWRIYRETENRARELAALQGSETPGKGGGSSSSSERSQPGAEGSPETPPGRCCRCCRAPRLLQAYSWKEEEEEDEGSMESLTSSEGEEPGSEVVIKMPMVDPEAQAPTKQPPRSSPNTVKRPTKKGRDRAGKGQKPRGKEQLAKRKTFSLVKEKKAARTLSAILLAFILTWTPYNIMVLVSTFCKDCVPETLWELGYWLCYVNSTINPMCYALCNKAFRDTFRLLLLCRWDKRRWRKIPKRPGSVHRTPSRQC
Experimental: as §1
The inoculated cell plate is placed in a cell incubator for culture for 12 h until the cell growth and fusion degree reaches about 95%, and the activity assay is carried out. The culture medium is sucked from the cultured ceils, the buffer salt specified by the test is added with a volume of 30 μL per orifice and is stabilized for 1 h. After the baseline is stable, a 2-min baseline is established, and different concentrations of compounds to be tested are added to test the cultured cells for 1 h. After the cells are pretreated with the compounds to be tested for 1 h, the 2-min baseline is re-established, and acetylcholine having a concentration of 1 μM is added to test the cultured cells for 1 h.

T1 sequence (P20309 whole entry): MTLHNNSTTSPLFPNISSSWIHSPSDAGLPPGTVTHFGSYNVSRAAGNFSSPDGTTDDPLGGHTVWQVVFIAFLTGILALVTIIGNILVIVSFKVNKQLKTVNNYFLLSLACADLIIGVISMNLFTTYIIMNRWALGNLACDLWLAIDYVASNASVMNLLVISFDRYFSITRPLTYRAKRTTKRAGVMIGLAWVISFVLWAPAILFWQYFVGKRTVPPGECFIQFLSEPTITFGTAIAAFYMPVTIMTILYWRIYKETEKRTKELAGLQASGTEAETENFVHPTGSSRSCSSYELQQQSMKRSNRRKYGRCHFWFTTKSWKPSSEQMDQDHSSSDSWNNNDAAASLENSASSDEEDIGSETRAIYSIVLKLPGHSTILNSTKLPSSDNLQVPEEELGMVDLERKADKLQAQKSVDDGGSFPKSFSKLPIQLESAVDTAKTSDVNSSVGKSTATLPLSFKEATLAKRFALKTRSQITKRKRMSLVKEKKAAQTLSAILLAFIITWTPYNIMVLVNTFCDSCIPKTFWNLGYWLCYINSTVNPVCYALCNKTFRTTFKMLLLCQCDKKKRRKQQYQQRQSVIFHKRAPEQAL

Row | SMILES | asthma incubation period [1] [s] | efficacy in asthma model, in words [1] | IC50 [2] [µM] | IC50 [3] [µM] | antagonistic activity against the M3 receptor, in words [2] | antagonistic activity against the M1 receptor, in words [3]
1 | C[N+]1(C)CCCCC1CC(c1ccccc1)c1ccccc1O.[Br-] (stereo not shown) [I-2a-1-Br, 2-[2-(2-hydroxy-phenyl)-phenethyl]-N,N-dimethylpiperidine Bromide] | 228.9 ± 4.7 | good efficacy | 0.0057 ± 0.0011 | 0.0088 ± 0.0026 |  | 
2 | C[N+]1(C)CCCCC1CC(c1ccccc1O)c1ccccc1O.[Br-] (stereo not shown) [I-3-1-Br, 2-[2,2-bis(2-hydroxy-phenyl)ethyl]-N,N-dimethylpiperidine Bromide] | 240 | good efficacy | 0.006 ± 0.0011 | 0.0185 ± 0.0036 |  | 
3 | C[N+]1(C)CCCCC1CC(c1ccccc1O)c1ccccc1O.[Br-] (stereo not shown) [I-3-2-Br, 2-[2,2-bis(2-hydroxy-phenyl)ethyl]-N,N-dimethylpiperidine Bromide] | 233.1 ± 21.8 | good efficacy | 0.011 ± 0.0036 | 0.0437 ± 0.0153 |  | 
4 | COc1ccc(O)c(C(CC2CCCC[N+]2(C)C)c2ccccc2)c1 (stereo not shown) [I-9, 2-[2-(2-hydroxy-5-methoxyphenyl)-phenethyl]-N,N-dimethylpiperidine Bromide] |  |  | 0.16 ± 0.0203 | 0.1 ± 0.0102 |  | 
5 | C[N+]1(C)CCCCC1CC(c1ccccc1)c1cc(F)ccc1O.[Br-] (stereo not shown) [I-10a-1, 2-[2-(2-hydroxy-5-fluorophenyl)-phenylethyl]-N,N-dimethylpiperidine bromide] | 240 | good efficacy | 0.037 ± 0.0043 |  |  | 
6 | Cc1ccc(O)c(C(CC2CCCC[N+]2(C)C)c2ccc(Cl)cc2)c1 (stereo not shown) [I-14, 2-[2-(4-chlorophenyl)-2-(2-hydroxy-5-methylphenyl)-ethyl]-N,N-dimethylpiperidine Bromide] |  |  | 0.0872 ± 0.0365 | 0.0792 ± 0.0369 |  | 
7 | Cc1ccc(C(CC2CCCC[N+]2(C)C)c2cc(C)ccc2O)cc1 (stereo not shown) [I-15, 2-[2-(4-tolyl)-2-(2-hydroxy-5-methyl-phenyl)-ethyl]-N,N-dimethylpiperidine Bromide] |  |  | 0.078 ± 0.031 | 0.0483 ± 0.011 |  | 
8 | Cc1ccc(O)c(C(CC2CCC[N+]2(C)C)c2ccccc2)c1 (stereo not shown) [I-19, 2-[2-(2-hydroxy-5-methyl-phenyl)-phenethyl]-N,N-dimethylpyrrolidine Bromide] |  |  | 0.0299 ± 0.0047 | 0.041 ± 0.0092 |  | 
9 | CCc1ccc(O)c(C(CC2CCC[N+]2(C)C)c2ccccc2)c1 (stereo not shown) [I-20, 2-[2-(2-hydroxy-5-ethyl-phenyl)-phenethyl]-N,N-dimethylpyrrolidine Bromide] |  |  | 0.0532 ± 0.0093 | 0.089 ± 0.0073 |  | 
10 | Cc1ccc(O)c(C(CC2CCCC[N+]2(C)C)c2ccsc2)c1 (stereo not shown) [I-22, 2-[2-(3-thienyl)-2-(2-hydroxy-5-methyl-phenyl)-ethyl]-N,N-dimethylpiperidine Bromide] |  |  | 0.0107 ± 0.0016 | 0.0257 ± 0.0008 |  | 
11 | Cc1ccc(OC(=O)C(C)C)c(C(CC2CCCC[N+]2(C)C)c2ccccc2)c1 (stereo not shown) [I-23, 2-[2-(2-isobutyryl estergroup-5-methyl-phenyl)-phenethyl]-N,N-dimethylpiperidine Bromide] |  |  | 0.79 ± 0.075 | 2.53 ± 0.48 |  | 
12 | Cc1ccc(OC(=O)c2ccccc2)c(C(CC2CCCC[N+]2(C)C)c2ccccc2)c1 (stereo not shown) [I-25, 2-[2-(2-benzoate Group-5-methyl-phenyl)-phenethyl]-N,N-dimethylpiperidine Bromide] |  |  | 2.31 ± 0.6 | 0.997 ± 0.06 |  | 
13 | CN1CCCCC1CC(c1ccccc1)c1ccccc1 (stereo not shown) [II-1, 2-(2,2-Diphenylethyl)-N-Methylpiperidine] |  |  | > 10 | 3.13 ± 0.24 |  | 
14 | CCCc1ccc(O)c(C(CC2CCCCN2C)c2ccccc2)c1 (stereo not shown) [II-6] |  |  | 0.11 ± 0.0139 | 0.0732 ± 0.0125 |  | 
15 | Cc1ccc(O)c(C(CC2CCCCN2C)c2ccccc2F)c1 (stereo not shown) [II-7, 2-[2-(2-fluorophenyl)-2-(2-hydroxy-5-methyl-phenyl)ethyl]-N-methylpiperidine] |  |  | 0.21 ± 0.03 | 0.23 ± 0.01 |  | 
16 | COc1ccc(O)c(C(CC2CCCCN2C)c2ccccc2)c1 (stereo not shown) [II-9, 2-[2-(2-hydroxy-5-methoxy-phenyl)-phenethyl]-N-methylpiperidine] |  |  | 0.32 ± 0.0414 | 0.0732 ± 0.0125 |  | 
17 | CN1CCCCC1CC(c1ccccc1)c1cc(O)ccc1O (stereo not shown) [II-11, 2-[2-(2,5-dihydroxy-phenyl)-phenethyl]-N-methylpiperidine] |  |  | 0.37 ± 0.159 | 0.19 ± 0.0358 |  | 
18 | Cc1ccc(O)c(C(CC2CCCCN2C)c2ccc(Cl)cc2)c1 (stereo not shown) [II-14, 2-[2-(4-chlorophenyl)-2-(2-hydroxy-5-methylphenyl)ethyl]-N-methylpiperidine] |  |  | 0.149 ± 0.0395 | 0.129 ± 0.0298 |  | 
19 | Cc1ccc(C(CC2CCCCN2C)c2cc(C)ccc2O)cc1 (stereo not shown) [II-15, 2-[2-(4-tolyl)-2-(2-hydroxy-5-methyl-phenyl)-ethyl]-N-methylpiperidine] |  |  | 0.112 ± 0.02 | 0.0651 ± 0.0117 |  | 
20 | COc1ccccc1C(CC1CCCCN1C)c1ccccc1 (stereo not shown) [II-17] |  |  | 3.42 ± 0.33 | 6.7 ± 0.81 |  | 
21 | CCN1CCCCC1CC(c1ccccc1)c1cc(C)ccc1O (stereo not shown) [II-18, 2-[2-(2-hydroxy-5-methyl-phenyl)-phenethyl]-N-ethylpiperidine] |  |  | 0.239 ± 0.0332 | 0.296 ± 0.0629 |  | 
22 | Cc1ccc(O)c(C(CC2CCCN2C)c2ccccc2)c1 (stereo not shown) [II-19] |  |  | 0.137 ± 0.0229 | 0.0745 ± 0.006 |  | 
23 | CCc1ccc(O)c(C(CC2CCCN2C)c2ccccc2)c1 (stereo not shown) [II-20] |  |  | 0.258 ± 0.0304 | 0.063 ± 0.0075 |  | 
24 | CN1CCCCC1CC(c1ccccc1)c1cccs1 (stereo not shown) [II-21] |  |  | 2.42 ± 0.33 | 3.68 ± 0.81 |  | 
25 | Cc1ccc(OC(=O)C(C)C)c(C(CC2CCCCN2C)c2ccccc2)c1 (stereo not shown) [II-23, 2-[2-(2-isobutyryl estergroup-5-methyl-phenyl)-phenethyl]-N-methylpiperidine] |  |  | 0.69 ± 0.16 | 1.9 ± 0.5 | the activity is greatly decreased | the activity is greatly decreased
26 | CC(=O)Oc1ccc(C)cc1C(CC1CCCCN1C)c1ccccc1 (stereo not shown) [II-24, 2-[2-(2-acetategroup-5-methyl-phenyl)-phenethyl]-N-methylpiperidine] |  |  | 1.21 ± 0.12 | 3.34 ± 0.21 | the activity is greatly decreased | the activity is greatly decreased
27 | Cc1ccc(OC(=O)c2ccccc2)c(C(CC2CCCCN2C)c2ccccc2)c1 (stereo not shown) [II-25, 2-[2-(2-benzoate Group-5-methyl-phenyl)-phenethyl]-N-methylpiperidine] |  |  | 2.97 ± 0.7 | 1.6 ± 0.2 | the activity is greatly decreased | the activity is greatly decreased
28 | Cc1ccc(S(=O)(=O)Oc2ccc(C)cc2C(CC2CCCCN2C)c2ccccc2)cc1 (stereo not shown) [II-26, 2-[2-(2-methylp-toluenesulfonategroup-5-methyl-phenyl)-phenethyl]-N-methylpiperidine] |  |  | 2.62 ± 0.425 |  | the activity is greatly decreased | the activity is greatly decreased

From US11274079B2 (DALIAN INSTITUTE OF CHEMICAL PHYSICS, CHINESE ACADEMY OF …, priority 2018, dated 2022)
